Assays:
[1] = test system: vertebral blood flow; test: Activity of increasing cerebral blood flow (vertebral blood flow as index, anesthetized dogs, intravenous); assay type: in vivo; conditions: 1 mg/kg i.v. (right femoral vein), anesthetized mongrel dogs
Protocol: The activity of increasing cerebral blood flow was measured by using the amount of vertebral blood flow as an index. Mongrel dogs of either sex (body weight 11 to 18 kg; four per groups) were anesthetized with sodium pentobarbital (30 mg/kg, by intravenous injection), and the right vertebral artery was isolated from the surrounding tissues. A flow probe was attached to it and led to an electromagnetic flow meter (MFV-2100 made by Nihon Kohden Co., Ltd.). The amount of blood flow was periodically measured [see Meth and Find Exptl Clin Pharmacol, 3 (6), 397 (1981)].
Each of the test compounds was dissolved in a 2% tartaric acid solution containing 20% dimethylacetamide, and administered to the right femoral vein in a dose of 1 mg/kg.

[2] = test system: death induced by collagen and adrenaline; test: Activity of defending thromboembolism-induced death (collagen and adrenaline, mice, oral); assay type: in vivo, ddY-strain male mice; conditions: Mus musculus, 1 h, one hour before collagen (400 micrograms/kg) and adrenaline (50 micrograms/kg) i.v., male ddY mice, probit method, read-out: ED50 (dose required to defend death induced by collagen and adrenaline to an extent of 50%)
Protocol: The compounds A, B, C and D of the invention and the comparative compounds 1 and 2 were used.
Each of the test compounds was dissolved or suspended in a 1% gum arabic solution, and orally administered to ddY-strain male mice (body weight 18 to 25 g; five per group). […] The dose required to defend death induced by collagen and adrenaline to an extent of 50% (ED50) was determined by the probit method (see The Journal of Pharmacology and Experimental Therapeutics, Vol. 225, page 57, 1983).

[3] = Acute toxicity (oral, mice); conditions: mouse, in vivo, fasted male ddY mice, deaths during seven days, Weil method
Protocol: ddY-strain male mice (body weight 18 to 22 g; five per group) were caused to fast 24 hours. Then, each of the compounds of this invention (A, B, C and D) was administered orally, and acute toxicity values (LD50) were determined.
Each of the compounds was dissolved or suspended in a 2% tartaric acid solution containing 20% of dimethylacetamide, and orally administered to the animals. From the number of animals which died during seven days, the LD50 values were calculated by using the Weil method.

[4] = 0.5 minutes after administration
[5] = 10 minutes after administration
[6] = 20 minutes after administration

Structure (SMILES)	Increase (%) in vertebral blood flow (mean ± standard error) [1, 4]	Increase (%) in vertebral blood flow (mean ± standard error) ([1]; 3 minutes after administration)	Increase (%) in vertebral blood flow (mean ± standard error) ([1]; 5 minutes after administration)	Increase (%) in vertebral blood flow (mean ± standard error) [1, 5]	Increase (%) in vertebral blood flow (mean ± standard error) [1, 6]	ED50 [2]	LD50 at 168 h [3]
COc1ccc(CN2CCN(C(c3ccccc3)c3ccc(F)cc3)CC2)c(OC)c1.O=C(O)/C=C/C(=O)O (stereo not drawn) [A, 1-(2,4-Dimethoxybenzyl)-4-(4-fluorobenzhydryl)-piperazine fumarate]	80.1 ± 17.0%	56.5 ± 15.0%	39.1 ± 12.2%	16.2 ± 5.4%	11.3 ± 4.1%	29.6 mg/kg	300 mg/kg
COc1ccc(CN2CCN(C(c3ccc(F)cc3)c3ccc(F)cc3)CC2)c(OC)c1.Cl.Cl.O.O [B, 1-(2,4-Dimethoxybenzyl)-4-[bis(4-fluorophenyl)-methyl]piperazine dihydrochloride dihydrate]	105.6 ± 3.9%	85.8 ± 15.0%	77.0 ± 15.6%	47.5 ± 17.7%	27.1 ± 13.4%	24.6 mg/kg	225 mg/kg
COc1ccc(CN2CCN(C(c3ccccc3)c3ccc(F)cc3)CC2)c(OC)c1OC.O=C(O)/C=C/C(=O)O (stereo not drawn) [C, 1-(2,3,4-Trimethoxybenzyl)-4-(4-fluorobenzhydryl)piperazine fumarate]	76.7 ± 15.1%	61.2 ± 14.9%	50.6 ± 12.4%	27.7 ± 6.3%	16.4 ± 4.6%	32.7 mg/kg	650 mg/kg
C(=Cc1ccccc1)CN1CCN(C(c2ccccc2)c2ccccc2)CC1 [Cinnarizine, 1-Cinnamyl-4-benzhydrylpiperazine, reference compound]	65.6 ± 18.2%	34.7 ± 15.6%	17.0 ± 8.7%	2.9 ± 3.8%	0%		
COc1ccc(CN2CCN(C(c3ccc(F)cc3)c3ccc(F)cc3)CC2)c(OC)c1OC.Cl.Cl [Compound D, 1-(2,3,4-Trimethoxybenzyl)-4-[bis(4-fluorophenyl)methyl]piperazine dihydrochloride]	95.9 ± 14.5%	102.6 ± 24.5%	107.0 ± 23.9%	87.0 ± 21.1%	65.1 ± 15.3%	7.7 mg/kg	300 mg/kg
COc1ccc(CN2CCN(C(c3ccccc3)c3ccccc3)CC2)c(OC)c1OC.Cl.Cl.O [compound 1, 1-(2,3,4-Trimethoxybenzyl)-4-benzhydrylpiperazine dihydrochloride monohydrate, reference compound]	75.3 ± 20.0%	39.2 ± 15.3%	25.6 ± 12.5%	10.0 ± 5.3%	5.0 ± 3.3%	55.4 mg/kg	
Cl.Cl.c1ccc(C(c2ccccc2)N2CCN(Cc3ccc4c(c3)OCO4)CC2)cc1 [compound 2, 1-(3,4-Methylenedioxybenzyl)-4-benzhydrylpiperazine dihydrochloride, reference compound]	50.6 ± 13.2%	13.5 ± 6.9%	7.4 ± 4.9%	2.5 ± 3.3%	0.4 ± 2.2%	44.7 mg/kg	

From patent US4663325A, “1-(2,3,4-tri-methoxybenzyl)-4[bis(4-fluorophenyl)methyl] piperazines are useful for treating cerebrovascular disease” (Kanebo Ltd., priority 1984, dated 1987)
